In ChEMBL document CHEMBL1135566, “Synthesis of a novel fluorescent probe for estrogen receptor” (Bioorg Med Chem Lett, 2002):

Target: T1, Estrogen receptor (Homo sapiens, UniProt P03372)
T1 sequence (P03372 whole entry): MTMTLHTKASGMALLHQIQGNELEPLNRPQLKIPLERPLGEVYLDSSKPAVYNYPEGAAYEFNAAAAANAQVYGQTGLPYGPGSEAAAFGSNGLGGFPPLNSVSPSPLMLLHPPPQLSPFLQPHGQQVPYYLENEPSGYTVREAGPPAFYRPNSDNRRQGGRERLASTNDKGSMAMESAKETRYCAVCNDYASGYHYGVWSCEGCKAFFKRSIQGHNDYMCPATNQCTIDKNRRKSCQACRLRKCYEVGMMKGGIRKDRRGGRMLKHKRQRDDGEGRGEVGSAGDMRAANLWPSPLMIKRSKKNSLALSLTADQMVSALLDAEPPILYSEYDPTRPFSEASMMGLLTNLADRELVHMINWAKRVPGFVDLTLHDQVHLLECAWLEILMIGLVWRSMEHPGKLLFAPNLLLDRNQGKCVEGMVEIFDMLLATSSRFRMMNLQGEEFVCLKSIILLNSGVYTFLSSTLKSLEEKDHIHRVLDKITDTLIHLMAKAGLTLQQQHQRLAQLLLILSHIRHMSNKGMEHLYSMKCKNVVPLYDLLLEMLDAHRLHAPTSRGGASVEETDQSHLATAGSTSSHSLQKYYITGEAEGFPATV
Test: Binding constant for Estrogen receptor alpha

- Kd: 5.8 nM
Structure (SMILES): CC/C(=C(/CC)c1ccc(OCCCC(=O)NCc2ccc(-c3c4ccc(=O)cc-4oc4cc(O)ccc34)c(C(=O)O)c2)cc1)c1ccc(O)cc1
